Results reported in patent US6469028B1, “Synthesis and use of retinoid compounds having negative hormone and/or anatgonist activities” (Allergan, Inc., priority 1995, dated 2002).

Legend:
[1] = target: T1, RARγ (Homo sapiens, UniProt P13631); test: Example 7: inhibition of RAR transactivation by ATRA, CV-1 cells; format: cell-based; details: equal doses of AGN 193109 and ATRA (10 nM ATRA)
T1 sequence (P13631 1-454): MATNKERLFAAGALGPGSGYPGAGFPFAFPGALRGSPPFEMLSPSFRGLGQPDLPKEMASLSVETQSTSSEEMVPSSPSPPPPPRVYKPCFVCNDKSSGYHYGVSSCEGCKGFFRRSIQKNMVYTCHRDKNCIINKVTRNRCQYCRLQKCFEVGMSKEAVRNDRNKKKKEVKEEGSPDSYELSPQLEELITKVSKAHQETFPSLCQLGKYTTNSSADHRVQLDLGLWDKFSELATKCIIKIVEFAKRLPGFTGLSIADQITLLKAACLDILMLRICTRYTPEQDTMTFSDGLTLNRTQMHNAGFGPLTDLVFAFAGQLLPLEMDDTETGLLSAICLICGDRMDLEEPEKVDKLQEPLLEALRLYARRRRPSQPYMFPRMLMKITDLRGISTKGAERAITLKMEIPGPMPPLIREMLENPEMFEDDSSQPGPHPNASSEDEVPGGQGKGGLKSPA

[2] = system: ER-RAR-α; test: Example 10: repression of basal gene activity, ERE-tk-Luc, CV-1 cells; format: cell-based; details: 10^−9 to 10^−6 M, 18 hours, single agent
Text: (§1) More specifically, these procedures employed the ER-RAR chimeric receptor and ERE-tk-Luc reporter system. The ERE-tk-Luc plasmid includes the region −397 to −87 of the estrogen responsive 5′-flanking region of the Xenopus vitellogenin A2 gene, described by Klein-Hitpass, et al. in Cell 46:1053-1061 (1986), ligated upstream of the HSV thymidine kinase promoter and luciferase reporter gene of plasmid tk-Luc. The ER-RAR chimeric receptors consisted of the estrogen receptor DNA binding domain fused to the “D-E-F” domain of the RARs. Those having ordinary skill in the art appreciate this “D-E-F” domain functions to bind retinoid, to provide a retinoid inducible transactivation function and to provide a contact site for heterodimerization with RXR. Thus, luciferase expression in this reporter system was dependent on activation of the transfected chimeric receptor construct.
(§2) CV-1 cells were co-transfected with the ERE-tk-Luc reporter plasmid and either ER-RAR-α, ER-RAR-β or ER-RAR-γ expression plasmids. The ERE-tk-Luc plasmid contained the estrogen-responsive promoter element of the Xenopus laevis vitellogenin A2 gene and was substantially identical to the reporter plasmid described by Klein-Hitpass et al. in Cell 46:1053 (1986), except that the CAT reporter gene was substituted by a polynucleotide sequence encoding luciferase. The ER-RAR-α, ER-RARβ and ER-RAR-γ chimeric receptor-encoding polynucleotides employed in the co-transfection have been described by Graupner et al. in Biochem. Biophys. Res. Comm. 179:1554 (1991). […] Calcium phosphate transfections were carried out exactly as described in Example 6 using 0.5 μg/well of reporter plasmid and either 0.05 μg, 0.10 μg or 0.2 μg/well of receptor plasmid. […] Cell lysates and luciferase activity measurements were performed as described in Example 6.

[3] = system: ER-RAR-β; test: as above; format: cell-based; details: 10^−9 to 10^−6 M, 18 hours, single agent
Text: as §1, §2

[4] = system: ER-RAR-γ; test: as above; format: cell-based; details: 10^−9 to 10^−6 M, 18 hours, single agent
Text: as §1, §2

[5] = system: MRP-8 expression in primary foreskin keratinocytes; test: Example 20: MRP-8 expression in keratinocytes (RT-PCR); format: cell-based, human; details: AGN 191183 10^−7 M or AGN 193109 10^−6 M, 3 days
Text: Primary foreskin keratinocytes were isolated according to the procedure described by Nagpal et al. in J. Biol. Chem. 270:923 (1995) and cultured in keratinocyte growth medium (KGM) that was purchased from Clonetics. […] The mRNA was reverse transcribed into cDNA which then served as the template in a PCR amplification protocol using primers specific for either the glyceraldehyde phosphate dehydrogenase (GAPDH) housekeeping gene or MRP-8. The GAPDH primers had the sequences [NT] ID NO:6) and [NT] ID NO:7). The MRP-8 primers had the sequences [NT] ID NO:8) and [NT] ID NO:9). An aliquot from the MRP-8 amplification reaction (10 μl) was removed after every cycle of PCR amplification starting from 12 cycles and ending at 21 cycles. Similarly, an aliquot of the GAPDH amplification reaction was removed after every PCR cycle starting at 15 cycles and ending at 24 cycles. […] The staining intensity of the amplification products served as a quantitative measure of the amount of starting MRNA specific for the given primer set.

[6] = system: stromelysin-1 expression in primary foreskin keratinocytes; test: Example 21: stromelysin-1 expression in keratinocytes (RT-PCR); format: cell-based, human; details: AGN 191183 10^−7 M or AGN 193109 10^−6 M, 24 hours
Method: Total RNA prepared from mock-treated and retinoid-treated keratinocytes was reverse transcribed and the resulting cDNA was PCR amplified using β-actin or stromelysin-1 oligo primers exactly as described by Nagpal et al. in J. Biol. Chem. 270:923 (1995)), the disclosure of which has been incorporated by reference. A sample (10 μl) from the PCR amplification reaction was removed after every three cycles starting from 18 cycles of PCR amplification. The sample was electrophoresed on a 2% agarose gel and detected after ethidium bromide staining.

[7] = target: T2, RARβ (Homo sapiens, UniProt P10826); test: Example 7: inhibition of RAR transactivation by ATRA, CV-1 cells; format: cell-based; design: expressed in transfected cells; host or cells: green monkey CV-1 cells; details: equal doses of AGN 193109 and ATRA (10 nM ATRA)
T2 sequence (P10826 1-448 isoform P10826-2): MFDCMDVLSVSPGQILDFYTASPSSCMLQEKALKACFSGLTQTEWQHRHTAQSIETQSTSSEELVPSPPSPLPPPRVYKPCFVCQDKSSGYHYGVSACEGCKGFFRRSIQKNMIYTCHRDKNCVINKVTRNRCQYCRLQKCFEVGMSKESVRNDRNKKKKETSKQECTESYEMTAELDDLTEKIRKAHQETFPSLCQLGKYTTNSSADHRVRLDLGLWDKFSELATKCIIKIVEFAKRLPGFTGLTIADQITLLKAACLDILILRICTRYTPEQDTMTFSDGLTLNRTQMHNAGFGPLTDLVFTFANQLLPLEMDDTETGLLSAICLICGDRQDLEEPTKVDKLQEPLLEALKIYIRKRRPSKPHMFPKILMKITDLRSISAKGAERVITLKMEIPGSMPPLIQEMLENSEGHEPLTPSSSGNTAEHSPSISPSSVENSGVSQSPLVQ
Method: Eukaryotic expression vectors pRShRAR-α (Giguere et al. Nature 330:624 (1987)), pRShRAR-β (Benbrook et al. Nature 333:669 (1988)) and pRShRAR-γ (Ishikawa et al. Mol. Endocrinol. 4:837 (1990)) were cotransfected with the Δ-MTV-Luc reporter plasmid described by Hollenberg et al. (Cell 55:899.(1988)). […] Calcium phosphate transfections were carried out exactly as described in Example 6. […] Cell lysates and luciferase activity measurements were also performed as in Example 6.

Cc1ccc(C2=CCC(C)(C)c3ccc(C#Cc4ccc(C(=O)O)cc4)cc32)cc1 [Compound 60, 4-[(5,6-dihydro-5,5-dimethyl-8-(4-methylphenyl)-2-naphthalenyl)ethynyl]benzoic acid]
inhibition of luciferase activity relative to ATRA alone [1]: greater than 50%
luciferase reporter activity [2]: substantially unaffected
luciferase reporter activity [3]: dose responsive decrease in luciferase reporter activity
luciferase reporter activity [4]: dose responsive decrease in luciferase reporter activity
MRP-8 mRNA expression [5]: repressed MRP8 expression
stromelysin-1 mRNA expression [6]: down-regulation of stromelysin-1 mRNA levels
inhibition of luciferase activity relative to ATRA alone [7]: greater than 50%
